Reference: patent US20250313563A1, “GLYCOGEN SYNTHASE KINASE 3 INHIBITORS AND USES THEREOF” (The Broad Institute, Inc., priority 2022, published 2025)
Read-outs that look alike come from different tables or passages of the source.

Tests used:
[1] = target: GSK3α (GST-full length GSK3α) (Homo sapiens (Human), UniProt P49840); assay: GSK3α TR-FRET kinase assay; format: biochemical
Summary of the method: (§1)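 Full-length GST-tagged human enzyme (1 nM) is exposed to test compound for 30 min before substrates are added. Phosphorylation of a primed biotinylated glycogen synthase peptide proceeds 100 min at room temperature at low ATP (4 μM α; 2 μM β) or high ATP (1 mM). Product is quantified by TR-FRET.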

[2] = target: GSK3b (GST-full length GSK3b) (Homo sapiens (Human), UniProt P49841); assay: GSK3b TR-FRET kinase assay; format: biochemical
Summary of the method: as §1

[3] = 1 nM GSK3α, 4 μM ATP, 30 minute preincubation, Table 16, read-out: GSK3-A TR-FRET BIOCHEMICAL (TR-FRET), IC50
[4] = 1 nM GSK3b, 2 μM ATP, 30 minute preincubation, Table 16, read-out: GSK3-B TR-FRET BIOCHEMICAL (TR-FRET), IC50
[5] = 1 nM GSK3α, 4 μM ATP, 30 minute preincubation, Table 16, read-out: GSK3-A TR-FRET BIOCHEMICAL (TR-FRET)
[6] = 1 nM GSK3b, 2 μM ATP, 30 minute preincubation, Table 16, read-out: GSK3-B TR-FRET BIOCHEMICAL (TR-FRET)
[7] = read-out: GSK3-A (TR-FRET 1 mM ATP), GMean, IC50, 1 mM ATP, geometric mean
[8] = read-out: GSK3-B (TR-FRET 1 mM ATP), GMean, IC50, 1 mM ATP, geometric mean
[9] = 1 nM GSK3α, 4 μM ATP, 30 minute preincubation, read-out: GSK3-A TR-FRET BIOCHEMICAL (TR-FRET), IC50
[10] = 1 nM GSK3b, 2 μM ATP, 30 minute preincubation, read-out: GSK3-B TR-FRET BIOCHEMICAL (TR-FRET), IC50

Sequence of GSK3α (GST-full length GSK3α) (P49840 whole entry): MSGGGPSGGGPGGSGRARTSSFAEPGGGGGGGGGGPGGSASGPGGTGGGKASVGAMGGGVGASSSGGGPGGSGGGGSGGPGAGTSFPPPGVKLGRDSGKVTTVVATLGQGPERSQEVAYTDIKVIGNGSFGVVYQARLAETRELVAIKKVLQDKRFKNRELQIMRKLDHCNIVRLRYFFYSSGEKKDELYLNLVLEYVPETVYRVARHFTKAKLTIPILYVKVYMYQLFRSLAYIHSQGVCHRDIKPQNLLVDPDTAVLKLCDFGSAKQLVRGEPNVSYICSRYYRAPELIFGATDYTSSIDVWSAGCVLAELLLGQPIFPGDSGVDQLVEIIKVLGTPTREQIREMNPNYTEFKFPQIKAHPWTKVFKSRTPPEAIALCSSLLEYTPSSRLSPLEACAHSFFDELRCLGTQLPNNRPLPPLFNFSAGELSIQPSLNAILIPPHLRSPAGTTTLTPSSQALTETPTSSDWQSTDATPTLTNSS
Sequence of GSK3b (GST-full length GSK3b) (P49841 whole entry): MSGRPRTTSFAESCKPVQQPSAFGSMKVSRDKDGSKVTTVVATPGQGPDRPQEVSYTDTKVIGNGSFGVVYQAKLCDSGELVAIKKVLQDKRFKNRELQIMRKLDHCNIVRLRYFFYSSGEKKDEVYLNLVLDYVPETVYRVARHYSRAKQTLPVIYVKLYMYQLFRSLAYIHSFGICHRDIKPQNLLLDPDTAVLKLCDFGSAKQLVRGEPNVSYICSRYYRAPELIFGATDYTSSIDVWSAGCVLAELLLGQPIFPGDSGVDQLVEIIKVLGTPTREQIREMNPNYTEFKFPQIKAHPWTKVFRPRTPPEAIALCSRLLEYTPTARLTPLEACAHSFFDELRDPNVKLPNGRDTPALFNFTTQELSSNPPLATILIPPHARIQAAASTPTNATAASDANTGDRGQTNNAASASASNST

Structure (SMILES) | IC50 [1, 3] [nM] | IC50 [2, 4] [nM] | IC50 [1, 5] [nM] | IC50 [2, 6] [nM] | further results
CCC1(c2cccc(N(C)c3ccnc(C(F)(F)F)c3)c2)C2=C(CC(C)(C)CC2=O)Nc2n[nH]cc21 (centres unmarked) [Compound 913254] | ≤ 100 | ≤ 100 | – | – | –
CCC1(c2cccc(N(C)c3cc(C)nc(C)c3)c2)C2=C(CC(C)(C)CC2=O)Nc2n[nH]cc21 (centres unmarked) [Compound 913256] | 1000 to 5000 | > 5000 | – | – | –
CCC1(c2cccc(S(=O)(=O)Cc3ccccc3)c2)C2=C(CC(C)(C)CC2=O)Nc2n[nH]cc21 (centres unmarked) [Compound 913258] | ≤ 100 | ≤ 100 | – | – | –
CC1(C)CC(=O)C2=C(C1)Nc1n[nH]cc1C21CN(S(=O)(=O)C2CC2)C1 [Compound 913259] | – | – | ≤ 100 | ≤ 100 | –
Cn1ccc(S(=O)(=O)N2CC3(C2)C2=C(CC(C)(C)CC2=O)Nc2n[nH]cc23)n1 [Compound 913260] | – | – | ≤ 100 | ≤ 100 | –
COc1ccccc1S(=O)(=O)N1CC2(C1)C1=C(CC(C)(C)CC1=O)Nc1n[nH]cc12 [Compound 913261] | – | – | ≤ 100 | ≤ 100 | –
CC1(C)CC(=O)C2=C(C1)Nc1n[nH]cc1C21CN(S(=O)(=O)c2ccccn2)C1 [Compound 913262] | – | – | ≤ 100 | ≤ 100 | –
CC1(C)CC(=O)C2=C(C1)Nc1n[nH]cc1C21CN(S(=O)(=O)c2ccccc2F)C1 [Compound 913263] | – | – | 100 to 1000 | 100 to 1000 | –
CN1CC2(C1)C1=C(CC(C)(C)CC1=O)Nc1n[nH]cc12 [Compound 913264] | – | – | ≤ 100 | ≤ 100 | –
CC1(C)CC(=O)C2=C(C1)Nc1n[nH]cc1C21CN(S(=O)(=O)c2cccnc2)C1 [Compound 913265] | > 5000 | > 5000 | – | – | –
CCC1(c2cccc(N(c3cccnc3)C3CC3)c2)C2=C(CC(C)(C)CC2=O)Nc2n[nH]cc21 (centres unmarked) [Compound 913274] | ≤ 100 | ≤ 100 | – | – | –
CCC1(c2cccc(N(C)C(=O)c3cnn(C)c3)c2)C2=C(CC(C)(C)CC2=O)Nc2n[nH]cc21 (centres unmarked) [Compound 913311] | ≤ 100 | ≤ 100 | – | – | IC50 [1, 7]: > 5000 nM; IC50 [2, 8]: > 5000 nM
CCC1(c2cccc(Nc3ncccn3)c2)C2=C(CC(C)(C)CC2=O)Nc2n[nH]cc21 (centres unmarked) [Compound 913334] | ≤ 100 | 100 to 1000 | – | – | –
CCC1(c2cccc(-c3ccnc(C)c3C)c2)C2=C(CC(C)(C)CC2=O)Nc2n[nH]cc21 (centres unmarked) [Compound 913347] | ≤ 100 | ≤ 100 | – | – | –
CCC1(c2cccc(-c3ccnc(C(F)(F)F)c3)c2)C2=C(CC(C)(C)CC2=O)Nc2n[nH]cc21 (centres unmarked) [Compound 913348] | ≤ 100 | 100 to 1000 | – | – | –
CCC1(c2cccc(-c3ccncc3F)c2)C2=C(CC(C)(C)CC2=O)Nc2n[nH]cc21 (centres unmarked) [Compound 913349] | ≤ 100 | ≤ 100 | – | – | –
CCC1(c2cccc(-c3ccnc(C(F)(F)F)c3)c2)C2=C(CC(C)(C)CC2=O)Nc2n[nH]cc21 (centres unmarked) [Compound 913350] | 100 to 1000 | ≤ 100 | – | – | IC50 [1, 7]: ≤ 100 nM; IC50 [2, 8]: 100 to 1000 nM
CCC1(c2cccc(-c3ccncc3C)c2)C2=C(CC(C)(C)CC2=O)Nc2n[nH]cc21 (centres unmarked) [Compound 913351] | ≤ 100 | ≤ 100 | – | – | –
CCC1(c2cccc(-c3ccnc(O)c3)c2)C2=C(CC(C)(C)CC2=O)Nc2n[nH]cc21 (centres unmarked) [Compound 913352] | ≤ 100 | ≤ 100 | – | – | –
CCC1(c2cccc(C(F)(F)F)c2)C2=C(CCCNC2=O)Nc2n[nH]cc21 (centres unmarked) [Compound 913355] | – | – | > 5000 | > 5000 | –
CC1(C)CC(=O)C2=C(C1)Nc1n[nH]cc1C21CCC(S(C)(=O)=O)CC1 (centres unmarked) [Compound 913356] | – | – | ≤ 100 | ≤ 100 | –
CCC1(c2cccc(-c3ccnc(C)c3)c2)C2=C(CC(C)NC2=O)Nc2n[nH]cc21 (centres unmarked) [Compound 913357] | – | – | – | – | IC50 [1, 9]: 100 to 1000 nM; IC50 [2, 10]: 1000 to 5000 nM
CCC1(c2cccc(Br)c2)C2=C(CC(C)(C)NC2=O)Nc2n[nH]cc21 (centres unmarked) [Compound 913439] | – | – | – | – | IC50 [1, 9]: ≤ 100 nM; IC50 [2, 10]: 100 to 1000 nM
O=C1CC2(CSC2)CC2=C1C1(CCCC1)c1c[nH]nc1N2 [Compound 913441] | – | – | 100 to 1000 | 100 to 1000 | –
CC1(C)CC(=O)C2=C(C1)Nc1n[nH]cc1[C@@]21CO[C@@H](C2CC2)C1 [Compound 913442] | – | – | 100 to 1000 | 100 to 1000 | –
CC[C@@]1(c2cccc(C(F)(F)F)c2)C2=C(Nc3n[nH]cc31)C(C)(C)NC2=O [Compound 913451] | – | – | ≤ 100 | 100 to 1000 | –
